These results are taken from patent US7750114B2, “Peptides having a high cysteine content” (priority 2002, dated 2010).

Bridge positions count the residues as written; N and C are the ends. Ends that are not written are not given here.

The test system of one series is human lymphocytes. The settings on record: Büssing A. et al. 1999; cited from earlier work.
For series [1] the following is noted: mammals; cited from earlier work.
Series [2] relates to murine peritoneal macrophages. Briefly: Effect on murine peritoneal macrophages (NO, TNF-α, IL-10, survival). Format: cell-based, CD1 mice. The settings on record: 24 hours; for IL-10 / TNF-α: control 0; for NO: control 1.1; for Survival rate: control 100. Here is the method: Murine peritoneal macrophages extracted from CD1 mice were used. A peritoneal flushing was carried out using 5 ml of PBS. After three washing processes with RPMI 1640 the cells were put into a 96-well culturing plate with a concentration of 1×10^6 cells/ml (200 μl/well) in 10% FCS-RPMI 1640 medium and kept for 24 hours. After the incubation the cells were washed three times with RPMI 1640 and resuspended in 10% FCS-RPMI 1640 medium (100 μl/well) in the absence (non stimulated) or in the presence (stimulated) of different stimulants. After 24 hours of incubation NO, IL-10 and TNF-α were measured in the culture supernatant.

The test system of series [3] is Colon cancer cell line: Colo 205. The series is described as follows: Living Colo 205 cells by MTT test. Format: cell-based, homo sapiens. The note with it: 24 h. How it is done: After adherence of the cells (incubation 24 h, cell amount 1×10^4 cells per batch), the cells were treated for 24 h with MCS and/or peptides (Hellethionin C (CZT), Hellethionin D (DZT)) and afterwards the percentage of living cells was measured by MTT test.
The MTT cell growth test was carried out according to Alley et. al. (M. C. Alley et al., Proc. Am. Assoc. Cancer Res., 27:389, 1986; M. C. Alley et al., Cancer Res. 48:589-601, 1988). The finale concentration of 3-(4,5-dimethylthiazol-2-yl)-2,5-diphenyltetrazoliumbromide was 0.4 mg/ml.
(Tetrazolium dyes change colour on reduction, which living cells bring about.)

For series [4], the system named is lung carcinoma cell line: A549. The series is described as follows: Living A549 cells by AlamarBlue test. Format: cell-based, homo sapiens. The settings on record: 100 μg/ml, after 72 h, FIG. 4. How it is done: Cell line: lung carcinoma cell line: A549 (ATCC No. CCL-185™), organism: homo sapiens, literature: Giard D J, et al. J. Natl. Cancer Inst. 51: 1417-1423, 1973.
After adherence of the cells (incubation 24 h, cell amount 5×10^3 cells per batch), the cells were treated for 72 h with MCS and/or peptides (CZT, DZT) and afterwards the percentage of living cells was measured by AlamarBlue test.
AlamarBlue™ cell growth test was carried out according to the specifications of the manufacturer (Serotec, Oxford, England, www.serotc.com).
Background: Resazurin is reduced to fluorescent resorufin, in cell work by metabolically active cells.

Series [5] deals with primary human immune cells. Briefly: Effect on the cytokine production of primary human immune cells (Quantikine ELISA in lymphocyte cultures). Format: cell-based. The settings on record: for TGF-β2 concentration: control 9; for IL-4 concentration: control 34; for IL-3 concentration: control 41; for IL-2R concentration: control 44; for IL-10 concentration: control 69; for IL-6R concentration: control 171. How it is done: The effect of the peptide HT-A on the cytokine production of primary human immune cells was determined through the measurement of the concentration of cytokines in lymphocyte cultures obtained from human blood. Dosages of 4-200 μg/ml of the hellethionins were used, which were obtained by adding the calculated amounts in the form of a stock solution. The concentration of individual cytokines in the treated and control samples is determined by means of the commercially available “Quantikine” ELISA plates from R&D Biosystems, Minneapolis, USA. The results were compared with control samples, i.e. with the lymphocyte culture without addition of the peptide.
In the case of the lymphocyte cultures (4 million cells per ml) treated with 4 μg and 200 μg of the peptide HT-A, respectively, the following cytokine (and cytokine receptor) concentrations [pg/ml] were obtained in comparison with the control sample (without peptide): […]
A general note: ELISA stands for enzyme-linked immunosorbent assay.

For orientation: LD50 means the dose expected to kill half of the subjects tested. On to viscotoxins, for which, in the series with human lymphocytes, the “toxic effect on human lymphocytes” value was “toxic”. The LD50 in series [1] was 0.1 to 1 mg/kg.
For purothionins, in the series on human lymphocytes, the “toxic effect on human lymphocytes” value is given as “do not exert a toxic effect”.
Regarding “KSCCRNTLARNCYNACRFTGGSQPTCGILCDCIHVTTTTCPSSHPS (disulfide 3-40, 4-32, 12-30, 16-26) [HT-D, hellethionin-D]”, in series [2] (5 μg/ml), the IL-10 is 0 pg/mL, the TNF-α came to 18 pg/mL, the NO was 0.8 µM and the Survival rate is 87.6%. For the same substance, in series [2] (100 μg/ml), the IL-10 worked out at 0 pg/mL, the TNF-α is 0 pg/mL, the NO stood at 1.3 µM and the Survival rate is given as 42.8%. In addition, the “Living Colo 205 cells” value in series [3] (50 μg/ml) came out at 92.15%. The “Living Colo 205 cells” value in series [3] (100 μg/ml, listed as DZT) is listed as “about 50%”. Besides, the “Living Colo 205 cells” value in series [3] (100 μg/ml, listed as DZT peptide) stood at 58.66%. The “living cells (A549)” value in series [4] is “about 50%”.
For the substance “KSCCRNTLGRNCYNACRLTGTSQATCATLCDCIHVTATTCRPPYPS (disulfide 3-40, 4-32, 12-30, 16-26) [HT-C, hellethionin-C]”, the figures for the Survival rate in series [2] (5 μg/ml) and in series [2] (100 μg/ml) were 80.3% and 10.7%, respectively.
In series [5] (4 μg/ml peptide), hellethionin-A [HT-A] returned a TGF-β2 concentration of 105 pg/mL, an IL-4 concentration of 19 pg/mL, an IL-3 concentration of 26 pg/mL and an IL-2R concentration of 30 pg/mL. In series [5] (4 μg/ml peptide), this substance registered an IL-10 concentration of 288 pg/mL and an IL-6R concentration of 100 pg/mL. In series [5] (200 μg/ml peptide), this substance gave a TGF-β2 concentration of 45 pg/mL, an IL-4 concentration of 12 pg/mL, an IL-3 concentration of 8 pg/mL and an IL-2R concentration of 67 pg/mL. In series [5] (200 μg/ml peptide), the IL-10 concentration stood at 12 pg/mL and the IL-6R concentration was 65 pg/mL. In addition, in series [5] (4 and 200 μg/ml), the “expression of pro-inflammatory cytokines IL-2, IL-3, IL-4 and γ-IFN” value is on record as “inhibiting the expression”; the “influence on production of IL-6 or TNF-α and expression of the IL-1 receptor” value is reported as “no significant influence”. Besides, the “effect on cytokines acting suppressively, IL-10 and TGF-β2” value in series [5] (more intense at 4 μg/ml than at 200 μg/ml) was “shows a stimulation”.
